Results on eleven molecules are retold here after patent US9085562B2, “6-alkyl-N-(pyridin-2-yl)-4-aryloxypicolinamide analogs as mGluR5 negative allosteric modulators and methods of making and using the same” (Vanderbilt University, priority 2011, dated 2015).

Molecules are shown by their SMILES. In brackets after ≈: the same amount, converted by molar mass. Where two headings read alike, the source gives them in different places.

As a reminder, the solubility is the concentration that dissolves in the medium under given conditions. By bioavailability is commonly meant dose-corrected exposure relative to a reference, in per cent. In general, half-life refers to the time needed for the level to fall by half in the phase considered. The term Cmax denotes the highest concentration seen after dosing. For orientation: Tmax means the time from dosing to the highest level.

Data set [1] has as its system elevated plus maze. Put plainly: Elevated plus maze. It is filed as in vivo. As for the experimental part: Test compounds (1) and (2) were administrated at the 10 mg/kg and 30 mg/kg doses described in this figure. […] Prospective In Vivo Effects
The test system of data set [2] is Marble Burying Activity in Mice. Put plainly: Inhibition of marble burying in mice (model of anxiolytic behavior). It is filed as in vivo. The settings on record: WT and Fmrl KO C57BL/6J mice. How it is done: It is well known that mice will bury foreign objects such as glass marbles in deep bedding (Deacon, R. M. J. Nature Protocols 2006, 1, 122-124). […] These facts along with the relative convenience of this assay make it a useful in vivo screening tool.
Doses of compound were suspended in vehicle (10% Tween 80 for intraperitoneal dosing and 0.5% methylcellulose for oral dosing), vortexed vigorously, heated gently with a Master Heat Gun (Master Appliance Corp., Racine, Wis.), and sonicated at 37° C. for 30 minutes. The pH was checked using 0-14 EMD strips and adjusted to approximately 7. All doses were administered at approximately 10 mL/kg.
Studies were conducted using male Harlan CD-1 mice (Harlan Sprague Dawley, Indianapolis, Ind.), weighing 30 to 35 grams. Subjects were housed in a large colony room under a 12 hour light/dark cycle (lights on at 6:00 a.m.) with food and water provided ad libitum. Test sessions were performed between 10:00 a.m. and 4:00 p.m. All dose groups consisted of ≧10 mice. All experiments were conducted in accordance with the National Institute of Health regulations of animal care covered in Principles of Laboratory Animal Care (National Institutes of Health publication 85-23, revised 1985) and were approved by the Institutional Animal Care and Use Committee.
Plexiglass cages (32×17×14 cm) were arranged on top of a large, round table. Mice were transported from the colony room to the testing room and allowed to habituate for 30 minutes. […] The novel compound and comparator were evaluated in a counterbalanced design, in which all doses of compounds were tested in each session. […] Clear, perforated plastic lids were set on top of each cage and the amount of marble burying was recorded over a 30 minute interval. The mice were then removed from the cages and the number of buried marbles was counted using the criteria of greater than ⅔ covered by bedding. […]
The data for the dose-response studies were analyzed by a between-group analysis of variance. […]

The test system is the same in data set [3]. To be noted: literature (Spooren 2000; Nicolas 2006); cited from earlier work.
Data set [4] relates to N-methyl-D-aspartate (NMDA) receptor. The settings on record: at higher concentrations; cited from earlier work.
The target in data set [5] is mGluR4 (Homo sapiens, UniProt Q14833). To be noted: cited from earlier work.
Data set [6] addresses T1, mGluR5 (Rattus norvegicus, UniProt P31424).
T1 construct: expressed in transfected cells
Description: mGluR5 IC50 / NAM profile of Tables 2 and 4. Format: cell-based. To be noted: Table 2, line under mGluR5 IC50. How it is done:
Human embryonic kidney (HEK) cells transfected with rat or human mGluR5 were plated in clear bottom assay plates for assay in a Functional Drug Screening System (FDSS). The cells were loaded with a Ca2+-sensitive fluorescent dye (e.g., Fluo-4), and the plates were washed and placed in the FDSS instrument. Test compound was applied to cells 3 seconds after baseline readings were taken. Cells were incubated with the test compounds for 140 seconds and then stimulated with an EC20 concentration of an mGluR5 agonist (e.g., glutamate, 3,5-dihydroxyphenylglycine, or quisqualate); 60-80 seconds later an EC80 concentration of agonist was added and readings taken for an additional 40 seconds. Data were collected at 1 Hz. […] Concentration response curves were generated using a four parameter logistical equation.

The nature of data set [7]: Solubility in SGF and FaSSIF. Format: physicochemical. The text has this:
(§1) Additional physicochemical and pharmacological data are provided below in Tables 2-4 for Test Compounds 1 and 2 (Compounds […] and (2) as described herein).

Data set [8] can be described thus: Permeability/efflux. Format: in vitro ADME. The settings on record: Table 2, Permeability/efflux.
Description: as §1

Data set [9] is described as follows: Human PPB. It is filed as in vitro ADME.
Description: as §1

Data set [10] is described as follows: Cynomolgus monkey IV/PO pharmacokinetics. To be noted: in vivo; for Cmax / Tmax: Cynomolgus monkey PO.
Data set [11] is described as follows: Mouse BHB. It is filed as in vitro ADME.
Description: as §1

Data set [12] can be described thus: Mouse PO PK (plasma and brain concentration). The settings on record: Mouse PO 10 mg/kg; for concentration at 0.25 h / concentration at 0.5 h / concentration at 1 h / concentration at 3 h: mouse, po, 10 mg/kg. Format: in vivo.
Description: as §1

The mark [13] stands for this setting: SGF, pH 1.6, simulated gastric fluid.
[14] abbreviates: brain, read-out: Brain Concentration.
[15] abbreviates: brain, read-out: Free Brain Concentration.
Setting [16] is: brain, 3 h, read-out: Brain Concentration.
Setting [17] is: brain, 3 h, read-out: Free Brain Concentration.
[18] abbreviates: plasma, read-out: Plasma Concentration.

T1 sequence (P31424 21-1171 isoform P31424-2 limits assumed): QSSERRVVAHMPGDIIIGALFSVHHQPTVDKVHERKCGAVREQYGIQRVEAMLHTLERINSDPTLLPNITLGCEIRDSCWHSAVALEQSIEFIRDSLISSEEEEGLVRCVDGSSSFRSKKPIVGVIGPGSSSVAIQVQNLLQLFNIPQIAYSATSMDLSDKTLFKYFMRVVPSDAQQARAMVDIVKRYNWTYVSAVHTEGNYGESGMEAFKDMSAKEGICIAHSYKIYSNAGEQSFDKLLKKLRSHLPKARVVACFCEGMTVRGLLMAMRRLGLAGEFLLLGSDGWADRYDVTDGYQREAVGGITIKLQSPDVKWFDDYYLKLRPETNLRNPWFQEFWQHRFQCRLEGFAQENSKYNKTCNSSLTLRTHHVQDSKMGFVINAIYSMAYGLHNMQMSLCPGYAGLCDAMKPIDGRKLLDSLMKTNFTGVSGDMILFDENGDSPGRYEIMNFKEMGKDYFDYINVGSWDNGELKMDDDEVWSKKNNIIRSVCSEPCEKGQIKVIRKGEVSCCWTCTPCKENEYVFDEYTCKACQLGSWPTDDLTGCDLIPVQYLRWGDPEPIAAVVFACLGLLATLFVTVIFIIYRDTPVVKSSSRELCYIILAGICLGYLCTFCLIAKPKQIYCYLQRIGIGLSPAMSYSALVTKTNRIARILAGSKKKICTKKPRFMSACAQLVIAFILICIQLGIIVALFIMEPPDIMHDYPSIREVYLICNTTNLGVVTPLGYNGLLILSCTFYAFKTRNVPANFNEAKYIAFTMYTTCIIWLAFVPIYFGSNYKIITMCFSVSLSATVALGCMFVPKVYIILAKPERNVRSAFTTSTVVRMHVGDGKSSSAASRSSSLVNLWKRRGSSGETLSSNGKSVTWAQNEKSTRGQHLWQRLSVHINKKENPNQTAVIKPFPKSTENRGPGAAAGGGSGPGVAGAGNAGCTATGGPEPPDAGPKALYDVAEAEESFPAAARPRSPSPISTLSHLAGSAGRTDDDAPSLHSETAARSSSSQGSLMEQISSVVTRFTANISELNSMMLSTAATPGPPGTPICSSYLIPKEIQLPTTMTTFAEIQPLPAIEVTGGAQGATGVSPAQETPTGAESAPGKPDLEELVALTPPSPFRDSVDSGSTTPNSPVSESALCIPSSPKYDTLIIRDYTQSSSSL
mGluR4, sequence (Q14833 33-912): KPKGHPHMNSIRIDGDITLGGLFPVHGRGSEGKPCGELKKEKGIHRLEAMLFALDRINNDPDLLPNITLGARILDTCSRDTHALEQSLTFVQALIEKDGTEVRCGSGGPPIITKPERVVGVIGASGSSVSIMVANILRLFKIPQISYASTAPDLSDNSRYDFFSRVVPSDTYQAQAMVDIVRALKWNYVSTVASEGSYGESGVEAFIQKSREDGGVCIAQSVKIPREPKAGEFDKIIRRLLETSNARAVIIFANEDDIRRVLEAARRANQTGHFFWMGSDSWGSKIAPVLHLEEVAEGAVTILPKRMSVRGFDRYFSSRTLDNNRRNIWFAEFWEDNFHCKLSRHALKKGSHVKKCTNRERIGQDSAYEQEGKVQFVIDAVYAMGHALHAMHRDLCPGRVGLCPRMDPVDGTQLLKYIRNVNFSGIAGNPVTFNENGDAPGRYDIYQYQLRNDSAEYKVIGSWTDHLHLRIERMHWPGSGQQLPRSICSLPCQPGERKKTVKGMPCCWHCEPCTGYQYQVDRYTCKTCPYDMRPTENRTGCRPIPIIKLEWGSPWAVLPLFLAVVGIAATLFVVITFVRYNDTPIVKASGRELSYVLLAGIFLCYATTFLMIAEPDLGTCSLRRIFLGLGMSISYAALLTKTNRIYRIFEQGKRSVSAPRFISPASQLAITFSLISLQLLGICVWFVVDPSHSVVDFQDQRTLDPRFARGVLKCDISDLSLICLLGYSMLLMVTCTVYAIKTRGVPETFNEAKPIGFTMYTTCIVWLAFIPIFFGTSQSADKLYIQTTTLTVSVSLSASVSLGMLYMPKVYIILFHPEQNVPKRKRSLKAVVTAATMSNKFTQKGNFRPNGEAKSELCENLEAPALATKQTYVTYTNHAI

On to `Cc1cc(Oc2cncc(F)c2)cc(C(=O)Nc2ccc(F)cn2)n1` [Compound (1), N-(5-fluoropyridin-2-yl)-4-((5-fluoropyridin-3-yl)oxy)-6-methylpicolinamide], for which the total distance traveled entry in data set [1] (10 mg/kg) and in data set [1] (30 mg/kg) was “statistically significant beneficial effect” throughout.

Take `Cc1cc(Oc2cncnc2)cc(C(=O)Nc2ccc(F)cn2)n1` [Compound (2), N-(5-fluoropyridin-2-yl)-6-methyl-4-(pyrimidin-5-yloxy)picolinamide]: the “inhibition of marble burying vs. vehicle” value in data set [2] (3 mg/kg PO 15 min prior to testing, 0.5% MC, 30 min burying) is listed as “inhibition of marble burying was observed”. Moreover, the “inhibition of marble burying vs. vehicle” value in [2] (10 mg/kg PO 15 min prior to testing, 0.5% MC, 30 min burying) was “inhibition of marble burying was observed”. Besides, in [1] (30 mg/kg), the “time spent in the open arms” value is listed as “statistically significant increase in the time spent in the open arms” and the total distance traveled entry is on record as “statistically significant beneficial effect”.

As to `Cc1cccc(C#Cc2ccccc2)n1` [MPEP, 2-methyl-6-(phenylethynyl)pyridine], in [3], the “effect in marble burying model” value is “effective in this model”. Also, the “effect on NMDA receptor activity” value in data set [4] is recorded as “directly inhibit the N-methyl-D-aspartate (NMDA) receptor activity”. In [5], the “activity at mGluR4” value is reported as “positive allosteric modulator of mGluR4”.

`Cc1nc(C#Cc2ccc(-c3cc(F)cc(C#N)c3)nc2)cs1` [STX107, reference compound]: in data set [2] (positive control, 10 mg/kg free base IP 60 min ptx), the “inhibition of marble burying vs. vehicle” value is “inhibition of marble burying was observed”.

`Cc1cc(Oc2cncnc2)cc(C(=O)Nc2ccc(F)cn2)n1` [drawing 263, N-(5-fluoropyridin-2-yl)-6-methyl-4-(pyrimidin-5-yloxy)picolinamide]: the “mGluR5 mode of action” value in data set [6] is listed as “NAM”. In addition, the solubility in data set [7] (FaSSIF, pH 6.5, fassif) was 47 µg/mL (≈ 144 µM); in data set [7] (setting [13]) it was 205 µg/mL (≈ 630 µM). For the same molecule, the Permeability result in data set [8] is “Predicted high”. Moreover, the efflux entry in data set [8] is recorded as “no efflux”. Moreover, in data set [9], the “Human PPB, %” value is 91.4%.

`Cc1cc(Oc2cncc(F)c2)cc(C(=O)Nc2ccc(F)cn2)n1` [drawing 264, N-(5-fluoropyridin-2-yl)-4-((5-fluoropyridin-3-yl)oxy)-6-methylpicolinamide]: the “mGluR5 mode of action” value in data set [6] is “NAM”. The molecule also gave a solubility in data set [7] (FaSSIF, pH 6.5, fassif) of 7 µg/mL (≈ 20.4 µM). In data set [7] (setting [13]), this molecule displayed a solubility of 70 µg/mL (≈ 204 µM). Also, in data set [8], the Permeability result is on record as “Predicted high” and the efflux result is on record as “no efflux”. Also, the “Human PPB, %” value in data set [9] is 98.5%.

Take `Cc1cc(Oc2cncnc2)cc(C(=O)Nc2ccc(F)cn2)n1` [drawing 267]: in data set [10] (Cynomolgus monkey IV/PO), the bioavailability was in the range of 42 to 45%, the clearance came out at 15.4 mL/min/kg and the half-life was 6.04 h. For the same molecule, the Vd in data set [10] (Cynomolgus monkey IV/PO, read-out: Vss) stood at 2.5 L/kg. In data set [10], the peak concentration (Cmax) was 858 nM and the Tmax came to 3 h.

In data set [10] (Cynomolgus monkey IV/PO), `Cc1cc(Oc2cncc(F)c2)cc(C(=O)Nc2ccc(F)cn2)n1` [drawing 268] had a bioavailability of 25 to 45%, a clearance of 13.2 mL/min/kg and a half-life of 9.38 h. In addition, in [10], the peak concentration (Cmax) was determined as 1360 nM and the Tmax is 2 h.

Take `Cc1cc(Oc2cncnc2)cc(C(=O)Nc2ccc(F)cn2)n1` [drawing 269]: the “Mouse BHB (%)” value in data set [11] turned out to be 92.2%. Besides, the “Plasma Concentration (nM)” value in [12] (1 h) and in [12] (3 h) was “BLQ” throughout. The results for the concentration at 0.25 h in [12] (setting [14]), in data set [12] (setting [15]) and in [12] (setting [18]) were 195 nM, 15.2 nM and 33.2 nM, respectively. In addition, the concentration at 0.5 h in data set [12] (setting [14]) is 345 nM; in data set [12] (setting [15]) it was 26.9 nM; in data set [12] (setting [18]) it was 77.4 nM. Moreover, the concentration at 1 h was 9.9 nM in data set [12] (brain, 1 h, read-out: Brain Concentration) and 0.8 nM in data set [12] (brain, 1 h, read-out: Free Brain Concentration). Further, the concentration at 3 h in [12] (setting [16]) was 9.2 nM; in data set [12] (setting [17]) it was 0.7 nM.

Regarding `Cc1cc(Oc2cncc(F)c2)cc(C(=O)Nc2ccc(F)cn2)n1` [drawing 270], the “Mouse BHB (%)” value in [11] stood at 98.5%. The “Brain Concentration (nM)” value in data set [12] (1 h) is reported as “BLQ”. Further, in data set [12] (1 h), the “Plasma Concentration (nM)” value is “BLQ”. The concentration at 0.25 h in data set [12] (setting [14]) stood at 176 nM; in data set [12] (setting [15]) it was 2.6 nM; in data set [12] (setting [18]), 48.3 nM. Also, the concentration at 0.5 h in [12] (setting [14]) came to 143 nM; in [12] (setting [15]), 2.1 nM; in data set [12] (setting [18]), 30.7 nM. Also, the concentration at 3 h was determined as 19.6 nM in [12] (setting [16]); 0.3 nM in [12] (setting [17]); 3.2 nM in [12] (plasma, 3 h, read-out: Plasma Concentration).

`CN1CC(=O)N=C1NC(=O)Nc1cccc(Cl)c1` [fenobam, 1-(3-chlorophenyl)-3-(1-methyl-4-oxo-4,5-dihydro-1H-imidazol-2-yl)urea]: the “effect in marble burying model” value in [3] is reported as “effective in this model”.
